# Data taken from article PMC8162438, “Cancer cell-selective modulation of mitochondrial respiration and metabolism by potent organogold(III) dithiocarbamates” (Chemical Science, 2020).
# Key:
# MDA-MB-231 = assay: Whole-cell uptake after pre-treatment with uptake inhibitors (GF-AAS); type: cell-based; conditions: MDA-MB-231, 5 μM, 24 h; NaN3, chlorpromazine, Me-β-CD, genistein, wortmannin
# Description: To understand cell uptake mechanisms, detailed uptake studies using GF-AAS were conducted whereby MDA-MB-231 cells were incubated with gold compound, 2a after cellular pretreatment with one of a number of known inhibitors of cellular uptake. Sodium azide (NaN3), which is known to inhibit mitochondrial oxidative phosphorylation, was used as a general inhibitor of energy (ATP)-dependent (active) uptake; chlorpromazine (CL) was utilized as an inhibitor of clathrin-dependent endocytosis (CDE); β-cyclodextrin (Me-β-CD) and genestein (Gen) were used as inhibitors of clathrin-independent endocytosis (CIE); and, wortmannin (Wort) was employed as a known inhibitor of micropinocytosis. […] Being an […] pathway illustrates that these compounds are not dependent on oxidative phosphorylation for uptake, despite; their ability to modulate OXPHOS. […]
# and treated at a final concentration of 5 µ M and treated for 24 hours as well. The cells were then collected by trypsinization and centrifuged at 2000 rpm for 5 minutes to form a pellet. […]
# text (Figure 5C). Samples 37 °C, NaN 3, methyl-β-cyclodextrin, and chlorpromazine hydrochloride were calculated using calibration curve Fig. S134 and samples wortmannin, genistein, and +4 °C were calculated using calibration curve Fig. S135. […]
# MRC5 = assay: Seahorse XF96 mitochondria stress test (OCR), MRC5; type: cell-based, human; conditions: MRC5, 0.1–3 μM
smiles,measurement,setting,value
C[N+](C)=C1[S][Au-2]2([S]1)[c]1ccccc1Cc1cccc[n+]12.F[P-](F)(F)(F)(F)F (centres unmarked) [2a],Uptake after pre-treatment with uptake inhibitors,MDA-MB-231,significantly decreased with all inhibitors with the exception of NaN3
same,Effect on OCR of MRC5,MRC5,did not impact the OCR
